# Measurements: patent US20100173917A1, “UREA DERIVATIVES AS ABL MODULATORS” (Ambit Biosciences Corporation, priority 2003, published 2010)
# Key:
# [1] = target: T1, ABL1(DKIN) (Homo sapiens, UniProt P00519); assay: Phage-display competition binding assay (Kd), ABL1(DKIN)
# T1 construct: ABL1(DKIN); fused on or other part: Fused to T7 bacteriophage particles (phage display)
# Text: (§1) The term “ND” represents non-determined values.
# [2] = target: T2, ABL1(E255K) (Homo sapiens, UniProt P00519, E255K); assay: Phage-display competition binding assay (Kd), ABL1(E255K)
# T2 construct: made in house; host or cells: T7 bacteriophage display
# Text: as §1
# [3] = target: T3, ABL1(T3151) (Homo sapiens, UniProt P00519, T315I); assay: Phage-display competition binding assay (Kd), ABL1(T3151)
# T3 construct: made in house; host or cells: T7 bacteriophage display
# Text: as §1
# [4] = target: T4, ABL1(E274K) (Homo sapiens, UniProt P00519, E255K); assay: Phage-display competition binding assay (Kd), ABL1(E274K)
# T4 construct: made in house; host or cells: T7 bacteriophage display
# Text: as §1
# [5] = target: T5, ABL1(H396P) (Homo sapiens, UniProt P00519, H396P); assay: Phage-display competition binding assay (Kd), ABL1(H396P)
# T5 construct: made in house; host or cells: T7 bacteriophage display
# Text: as §1
# [6] = target: T6, ABL1(Y253F) (Homo sapiens, UniProt P00519, Y253F); assay: Phage-display competition binding assay (Kd), ABL1(Y253F)
# T6 construct: made in house; host or cells: T7 bacteriophage display
# Text: as §1
# [7] = target: T7, ABL1(Q252H) (Homo sapiens, UniProt P00519, Q252H); assay: Phage-display competition binding assay (Kd), ABL1(Q252H)
# T7 construct: made in house; host or cells: T7 bacteriophage display
# Text: as §1
Kd [1],Kd [2],Structure (SMILES),further results
–,> 10 µM,Cc1ccc(C(=O)Nc2ccc(NC(=O)Nc3nc(C(C)(C)C)cs3)cc2)cc1 [Compound N135],Kd [3]: > 10 µM
–,> 10 µM,CC(C)(C)c1cc(NC(=O)Nc2ccc(NC(=O)c3ccc4ccccc4n3)cc2)no1 [Compound N143],–
> 10 µM,–,Cc1ccc(-n2nc(C(C)(C)C)cc2NC(=O)Nc2ccc(Br)cc2C(F)(F)F)cc1 [Compound H13],–
–,> 10 µM,"COc1cc2nc(Cl)nc(Nc3ccc(NC(=O)Nc4cc(C(C)(C)C)on4)cc3)c2cc1OC [Compound O1, 1-(4-(2-chloro-6,7-dimethoxyquinazolin-4-ylamino)phenyl)-3-(5-tert-butylisoxazol-3-yl)urea]",Kd [5]: > 10 µM; Kd [6]: > 10 µM; Kd [7]: 1 to 10 µM; Kd [3]: 1 to 10 µM
< 0.1 µM,0.1 to 1 µM,COc1cc2ncnc(Nc3ccc(NC(=O)Nc4cc(C(C)(C)C)on4)cc3)c2cc1OC [Compound O5],Kd [5]: 0.1 to 1 µM; Kd [6]: 0.1 to 1 µM; Kd [7]: 0.1 to 1 µM; Kd [3]: < 0.1 µM
0.1 to 1 µM,–,CC(C)(C)c1cc(NC(=O)Nc2ccc(NC(=O)Cc3sc(-c4ccc(Cl)cc4)nc3-c3ccccc3)cc2)no1 [Compound N66],–
–,> 10 µM,Cc1ncccc1C(=O)Nc1ccc(NC(=O)Nc2cc(C(C)(C)C)on2)cc1 [Compound N145],–
–,> 10 µM,Cc1ccc(C(=O)Nc2ccc(NC(=O)Nc3cc(C(C)(C)C)on3)cc2)cn1 [Compound N142],–
–,> 10 µM,CC(C)(C)c1cc(NC(=O)Nc2ccc(NC(=O)c3ccnc4ccccc34)cc2)no1 [Compound N141],–
–,> 10 µM,Cc1[nH]c(C(=O)Nc2ccc(NC(=O)Nc3cc(C(C)(C)C)on3)cc2)c(C)c1CCC(=O)O [Compound N39],–
–,> 10 µM,CC(C)(C)c1cc(NC(=O)Nc2ccc(NC(=O)c3ccc4cccnc4n3)cc2)no1 [Compound N144],–

# More lines, now with the values behind:
Structure (SMILES),Kd [1],Kd [2],further results
"CC(C)(C)c1cc(NC(=O)Nc2ccc(Cl)c(C(F)(F)F)c2)no1 [Compound A1, 1-(5-tent-butylisoxazol-3-yl)-3-(4-chloro-3-(trifluoromethyl)phenyl)urea]",> 10 µM,–,–
CC(C)(C)c1cc(NC(=O)Nc2ccc(C(=O)Nc3nccnc3N)cc2)no1 [Compound N157],–,–,Kd [4]: > 10 µM
CC(C)(C)c1cc(NC(=O)Nc2ccc(NC(=O)c3cccc4nc5cc(O)cc(O)c5cc34)cc2)no1 [Compound N139],–,–,Kd [3]: > 10 µM
"CC(C)(C)c1cc(NC(=O)Nc2ccc(OCCCc3ccncc3)cc2)no1 [Compound G1, 1-(4-(3-(pyridin-4-yl)propoxy)phenyl)-3-(5-tert-butylisoxazol-3-yl)urea]",–,> 10 µM,–
CSc1ccc(NC(=O)Nc2cc(C(C)(C)C)no2)cc1 [Compound A39],> 10 µM,–,–
CC(C)(C)c1cc(NC(=O)Nc2ccc(OCCc3ccncc3)cc2)no1 [Compound G22],–,> 10 µM,–
CC(C)(C)c1cc(NC(=O)Nc2ccc(NC(=O)c3c4c(nc5ccccc35)CCCC4)cc2)no1 [Compound N140],–,–,Kd [3]: > 10 µM
COC(=O)c1cccc(Sc2ncc(NC(=O)Nc3cc(C(C)(C)C)on3)s2)c1 [Compound O8],–,–,Kd [3]: 0.1 to 1 µM
CC(C)(C)c1cc(NC(=O)Nc2ccc(Br)cc2C(F)(F)F)on1 [Compound A26],> 10 µM,–,–
CC(C)(C)c1cc(NC(=O)Nc2ccc(OCCc3ccccn3)cc2)no1 [Compound G27],–,> 10 µM,Kd [3]: 1 to 10 µM
CC(C)(C)c1cc(NC(=O)Nc2ccc(Cl)cc2)on1 [Compound A32],> 10 µM,–,–
CC(C)(C)c1csc(NC(=O)Nc2ccc(OCc3ccccc3)cc2)n1 [Compound G49],–,> 10 µM,–
COc1ccc(NC(=O)Nc2cc(C(C)(C)C)no2)cc1 [Compound A30],> 10 µM,–,–
CC(C)(C)c1cc(NC(=O)Nc2ccc(Br)cc2C(F)(F)F)no1 [Compound A41],> 10 µM,–,–
